Laboratory results taken from ChEMBL document CHEMBL5360561, “Design, synthesis and biological evaluation of fluorinated selective estrogen receptor degraders (FSERDs) --- A promising strategy for advanced ER positive breast cancer” (Eur J Med Chem, 2023).
Active and inactive are the calls of the source. No cut-off for these calls is given here.

Legend:
MCF7 [1] = assay: Antiproliferative activity against human MCF7 cells assessed as reduction in cell viability; type: functional, cell-based
MCF7 [2] = assay: Antiproliferative activity against human MCF7 cells assessed as cell growth inhibition incubated for 5 days by MTT assay; type: functional, cell-based; settings: MCF7, 120 h
Ishikawa = assay: Antiproliferative activity against human Ishikawa cells assessed as cell growth inhibition at 20 uM incubated for 3 days by MTT assay; type: functional; settings: for inhibition at 20 µM: 72 h, time 3 day; for inhibition: time 3.0 day
MCF7 [3] = assay: Induction of ER degradation in human MCF7 cells at 10 uM incubated for 24 hrs by Western blot analysis; type: cell-based
[4] = Apparent volume of distribution in ICR mouse at 3 mg/kg, iv and measured upto 24 hrs by LC-MS analysis; type: ADME, organism-based; settings: in vivo, read-out: Vz
[5] = Half life in ICR mouse at 30 mg/kg, po and measured upto 24 hrs by LC-MS analysis; type: ADME, organism-based; settings: in vivo
[6] = Toxicity in mouse xenografted with human MCF7 cells assessed as body weight loss at 30 mg/kg,po for 30 days daily; type: organism-based; settings: in vivo, 720 h, time 30 day
[7] = MRT (0 to infinity) in ICR mouse at 30 mg/kg, po and measured upto 24 hrs by LC-MS analysis; type: ADME, organism-based; settings: in vivo
MCF7 [8] = assay: Antitumor activity against human MCF7 cells xenografted in nude mouse assessed as tumor growth inhibition at 30 mg/kg,po for 30 days daily; type: functional, organism-based; settings: time 30.0 day
[9] = MRT(t) in ICR mouse at 30 mg/kg, po and measured upto 24 hrs by LC-MS analysis; type: ADME, organism-based; settings: in vivo
Mus musculus [10] = assay: In vivo ER degradation in mouse xenografted with human MCF7 cells assessed as reduction in ER expression level in tumor at 30 mg/kg,po for 30 days daily by […]; type: functional, organism-based; settings: time 30.0 day
MCF7 [11] = assay: Induction of ER degradation in Estradiol stimulated human MCF7 cells assessed as decrease in PGR gene expression level at 1 to 10 uM incubated for 24 hrs by RT-qPCR analysis; type: cell-based; settings: dose 1-10 µM
[12] = Cmax in ICR mouse at 30 mg/kg, po and measured upto 24 hrs by LC-MS analysis; type: ADME, organism-based; parameters: time < 24 hrs, dose 30 mg/kg, route po; settings: in vivo
Mus musculus [13] = assay: In vivo ER degradation in mouse xenografted with human MCF7 cells assessed as reduction in PR expression level in tumor at 30 mg/kg,po for 30 days daily by […]; type: functional, organism-based; settings: time 30.0 day
[14] = Half life in ICR mouse at 3 mg/kg, iv and measured upto 24 hrs by LC-MS analysis; type: ADME, organism-based; settings: in vivo
MCF7 [15] = assay: Induction of cell cycle arrest in human MCF7 cells assessed as accumulation at G0/G1 phase at 10 uM incubated for 24 hrs by flow cytometry (Rvb= 46.53 +/- 0.44%); type: functional
MCF7 [16] = assay: Induction of ER degradation in human MCF7 cells at 10 uM incubated for 24 hrs by DAPI staining based immunofluorescence analysis; type: cell-based
[17] = AUCt in ICR mouse at 3 mg/kg, iv and measured upto 24 hrs by LC-MS analysis; type: ADME, organism-based; parameters: dose 3 mg/kg, time < 24 hrs, route iv; settings: in vivo
[18] = Clearance in ICR mouse at 3 mg/kg, iv and measured upto 24 hrs by LC-MS analysis; type: ADME, organism-based; settings: in vivo
[19] = Toxicity in mouse xenografted with human MCF7 cells assessed as morphological changes in spleen at 30 mg/kg,po for 30 days daily by Hematoxylin and eosin staining based microscopy; type: organism-based; settings: in vivo, 720 h, time 30 day
[20] = MRT(t) in ICR mouse at 3 mg/kg, iv and measured upto 24 hrs by LC-MS analysis; type: ADME, organism-based; settings: in vivo
[21] = Cmax in ICR mouse at 3 mg/kg, iv and measured upto 24 hrs by LC-MS analysis; type: ADME, organism-based; parameters: dose 3 mg/kg, time < 24 hrs, route iv; settings: in vivo
[22] = AUCt in ICR mouse at 30 mg/kg, po and measured upto 24 hrs by LC-MS analysis; type: ADME, organism-based; parameters: time < 24 hrs, dose 30 mg/kg, route po; settings: in vivo
[23] = Toxicity in mouse xenografted with human MCF7 cells assessed as morphological changes in liver at 30 mg/kg,po for 30 days daily by Hematoxylin and eosin staining based microscopy; type: organism-based; settings: in vivo, 720 h, time 30 day
MCF7 [24] = assay: Induction of ER degradation in Estradiol stimulated human MCF7 cells assessed as decrease in TFF1 gene expression level at 1 to 10 uM incubated for 24 hrs by RT-qPCR analysis; type: cell-based; settings: dose 1-10 µM
[25] = C0 in ICR mouse at 3 mg/kg, iv and measured upto 24 hrs by LC-MS analysis; type: ADME, organism-based; settings: in vivo
[26] = MRT (0 to infinity) in ICR mouse at 3 mg/kg, iv and measured upto 24 hrs by LC-MS analysis; type: ADME, organism-based; settings: in vivo
[27] = Tmax in ICR mouse at 3 mg/kg, iv and measured upto 24 hrs by LC-MS analysis; type: ADME, organism-based; settings: in vivo
MCF7 [28] = assay: Induction of ER degradation in human MCF7 cells at 0.001 to 10 uM incubated for 24 hrs by Western blot analysis; type: cell-based; settings: dose 0.001-10 µM
MCF7 [29] = assay: Induction of ER degradation in human MCF7 cells transfected with ERE-luciferase plasmid assessed as decrease in estradiol induced ERE-luciferase activity by measuring luminescence at 10 uM incubated for 24 hrs by luciferase assay; type: cell-based
[30] = Tmax in ICR mouse at 30 mg/kg, po and measured upto 24 hrs by LC-MS analysis; type: ADME, organism-based; settings: in vivo
[31] = Toxicity in Sprague-Dawley rat uterus assessed as change in uterine wet weight at 30 mg/kg, po for 2 days consecutively; type: organism-based; settings: in vivo, 48 h, time 2 day
[32] = Oral bioavailability in ICR mouse at 30 mg/kg and measured upto 24 hrs by LC-MS analysis; type: ADME, organism-based; settings: in vivo
[33] = AUC (0 to infinity) in ICR mouse at 3 mg/kg, iv and measured upto 24 hrs by LC-MS analysis; type: ADME, organism-based; parameters: time < 24 hrs, dose 3 mg/kg, route iv; settings: in vivo
[34] = Toxicity in mouse xenografted with human MCF7 cells assessed as morphological changes in kidney at 30 mg/kg,po for 30 days daily by Hematoxylin and eosin staining based microscopy; type: organism-based; settings: in vivo, 720 h, time 30 day
MCF7 [35] = assay: Induction of ER degradation in Estradiol stimulated human MCF7 cells assessed as decrease in GREB1 mRNA expression level at 1 to 10 uM incubated for 24 hrs by RT-qPCR analysis; type: cell-based; settings: dose 1-10 µM
[36] = AUC (0 to infinity) in ICR mouse at 30 mg/kg, po and measured upto 24 hrs by LC-MS analysis; type: ADME, organism-based; parameters: time < 24 hrs, dose 30 mg/kg, route po; settings: in vivo
[37] = Toxicity in mouse xenografted with human MCF7 cells assessed as morphological changes in heart at 30 mg/kg,po for 30 days daily by Hematoxylin and eosin staining based microscopy; type: organism-based; settings: in vivo, 720 h, time 30 day
MCF7 [38] = assay: Antitumor activity against human MCF7 cells xenografted in nude mouse assessed as reduction in Ki67 expression at 30 mg/kg,po for 30 days daily by immunohistochemical analysis; type: functional, organism-based; settings: time 30.0 day
MCF7 [39] = assay: Stabilization of ER in human MCF7 cells at 10 uM incubated for 24 hrs by Western blot analysis; type: cell-based
[40] = Plasma concentration in ICR mouse at 100 mg/kg, po and measured after 0.25 hrs by LC-MS analysis; type: ADME, organism-based
[41] = Plasma concentration in ICR mouse at 100 mg/kg, po and measured after 1 hrs by LC-MS analysis; type: ADME, organism-based
[42] = Plasma concentration in ICR mouse at 100 mg/kg, po and measured after 0.5 hrs by LC-MS analysis; type: ADME, organism-based
[43] = Toxicity in Sprague-Dawley rat uterus assessed as increase in uterine wet weight at 0.1 mg/kg, po for 2 days consecutively; type: organism-based; settings: in vivo, 48 h, time 2 day

SMILES: CCNCCc1ccc(CN(CC)c2cc(OC)ccc2[C@@H]2CCc3cc(O)ccc3C2)cc1 [ELACESTRANT]
- IC50 (MCF7 [1]): 4.2 µM

SMILES: O=C(O)/C=C/c1ccc(Oc2c(C(=O)c3ccc4ccccc4c3)sc3cc(F)ccc23)cc1
- IC50 (MCF7 [2]): 4.74 µM
- inhibition at 20 µM (Ishikawa): 25%
- Activity (MCF7 [3]): Active

SMILES: Cc1cc(F)cc(C)c1C(=O)c1sc2cc(F)ccc2c1Oc1ccc(/C=C/C(=O)O)cc1
- Vd [4]: 1.13 L/kg
- half-life [5]: 3.13 h
- Activity [6]: Non-Toxic
- MRT inf [7]: 6.06 h
- Activity (MCF7 [8]): Active
- MRT last at 24 h [9]: 4.39 h
- Activity (Mus musculus [10]): Active
- Activity (MCF7 [11]): Active
- Cmax [12]: 5530 ng/mL
- Activity (Mus musculus [13]): Active
- half-life [14]: 1.23 h
- IC50 (MCF7 [2]): 0.055 µM
- Activity (MCF7 [15]): 56.1%
- Activity (MCF7 [16]): Active
- AUC(0-t) at 24 h [17]: 4610 ng·h/mL
- clearance [18]: 11 mL/min/kg
- Activity [19]: Non-Toxic
- MRT last at 24 h [20]: 0.978 h
- Cmax [21]: 4500 ng/mL
- AUC(0-t) at 24 h [22]: 26600 ng·h/mL
- inhibition at 20 µM (Ishikawa): 12%
- Activity [23]: Non-Toxic
- Activity (MCF7 [24]): Active
- C0 at 24 h [25]: 4840 ng/mL
- MRT inf [26]: 1.04 h
- Tmax [27]: 1.8 min
- Activity (MCF7 [28]): Dose-Dependent Effect
- Activity (MCF7 [29]): Active
- Tmax [30]: 0.333 h
- Activity [31]: Non-Toxic
- Activity (MCF7 [3]): Active
- bioavailability [32]: 62.9%
- AUC(0-inf) [33]: 4640 ng·h/mL
- Activity [34]: Non-Toxic
- Activity (MCF7 [35]): Active
- AUC(0-inf) [36]: 29200 ng·h/mL
- Activity [37]: Non-Toxic
- Activity (MCF7 [38]): Active

SMILES: O=C(O)/C=C/c1ccc(Oc2c(C(=O)c3ccccc3)sc3cc(F)ccc23)cc1F
- IC50 (MCF7 [2]): 1.53 µM
- inhibition (Ishikawa): inactive
- Activity (MCF7 [3]): Active

SMILES: Cc1cc(/C=C/C(=O)O)ccc1Oc1c(C(=O)c2ccccc2)sc2cc(F)ccc12
- IC50 (MCF7 [2]): 3.79 µM
- inhibition at 20 µM (Ishikawa): 6%
- Activity (MCF7 [3]): Active

SMILES: CC/C(=C(\c1ccccc1)c1ccc(OCCN(C)C)cc1)c1ccccc1 [TAMOXIFEN]
- Activity (MCF7 [8]): Active
- Activity (MCF7 [39]): Active
- IC50 (MCF7 [2]): 2.33 µM
- Activity (MCF7 [15]): 67.34%
- inhibition at 20 µM (Ishikawa): 50%
- Activity [31]: Toxic

SMILES: Cc1cc(F)ccc1C(=O)c1sc2cc(F)ccc2c1Oc1ccc(/C=C/C(=O)O)cc1
- IC50 (MCF7 [2]): 0.36 µM
- inhibition at 20 µM (Ishikawa): 11%
- Activity (MCF7 [3]): Active

SMILES: COc1ccc(C(=O)c2sc3cc(F)ccc3c2Oc2ccc(/C=C/C(=O)O)cc2)cc1
- IC50 (MCF7 [2]): 0.34 µM
- inhibition at 20 µM (Ishikawa): 53%
- Activity (MCF7 [3]): Active

SMILES: O=C(O)/C=C/c1ccc(Oc2c(C(=O)c3ccccc3)sc3cc(F)ccc23)cc1
- concentration at 0.25 h [40]: 9860 ng/mL
- IC50 (MCF7 [2]): 2.12 µM
- inhibition at 20 µM (Ishikawa): 8%
- concentration at 1 h [41]: 15600 ng/mL
- concentration at 0.5 h [42]: 16000 ng/mL
- Activity (MCF7 [3]): Active

SMILES: Cc1cc(F)cc(C)c1C(=O)c1sc2cc(O)ccc2c1Oc1ccc(/C=C/C(=O)O)cc1 [RINTODESTRANT]
- concentration at 0.5 h [42]: 4500 ng/mL

SMILES: C[C@]12CC[C@@H]3c4ccc(O)cc4CC[C@H]3[C@@H]1CC[C@@H]2O [ESTRADIOL]
- Activity [43]: Toxic

SMILES: O=C(O)/C=C/c1ccc(Oc2c(C(=O)c3ccc4ccncc4c3)sc3cc(F)ccc23)cc1
- IC50 (MCF7 [2]): > 20 µM
- inhibition at 20 µM (Ishikawa): 36%
- Activity (MCF7 [3]): Active

SMILES: CC(C)c1ccccc1C(=O)c1sc2cc(F)ccc2c1Oc1ccc(/C=C/C(=O)O)cc1
- IC50 (MCF7 [2]): 0.32 µM
- inhibition (Ishikawa): inactive
- Activity (MCF7 [3]): Active
